# Laboratory results reported in patent EP2307018B1, “OXYMATRINE COMPOSITIONS AND USE THEREOF FOR TREATING AND PREVENTING CHRONIC INFECTIOUS DISEASES” (Chia, John K.S., priority 2008, dated 2010).
# Legend:
# enterovirus [1] = experiment: open-label, controlled oxymatrine clinical study in ME/CFS patients with enterovirus infection; type: in vivo, human
# Experimental: An open-label, controlled study was conducted on patients who fulfilled the international criteria for myalgic encephalomyelitis (ME)/chronic fatigue syndrome (CFS) and had virological evidence of enterovirus infection.
# One hundred patients took oxymatrine at dose of 200-300 mg twice a day with or without food for a minimum of three months. Patients who could not complete the course due to side effects or intolerance were considered as failures (intent-to-treat analysis). Of the first group, 52% (52/100) responded to oxymatrine, as compared to 6% (7/114) of the control groups (p <0.000001, X^2 test). Of the next 104 patients, 52% responded to treatment. […] Fifty-three percent (57/107) of patients with elevated […] (CVB) and echovirus (Ech) antibody responded to therapy and 50% (49/97) of patients with non-typeable EV infections improved (NS, X^2 test). Fifty-two percent (47/91) of patients with positive EV protein in stomach biopsies responded, whereas 56% (5/9) of patients with negative biopsies responded (NS, X^2 test).
# [2] = system: interleukin-12P35+P40/interleukin-10; experiment: cytokine gene expression in CFS patients at start of and during oxymatrine therapy (FIG. 5); type: in vivo, human
# Text: • FIG. 1 graphically illustrates the comparison of Th1/Th2 (interleukin-12p35+P40/interleukin-4 + interleukin-10, RQ is the gene expression ratio) gene expression of patients who are functional (able to work) versus totally disability (not able to work). The difference therein is statistically significant (p<0.01, pair t test). • FIG. 2 illustrates the infected human stomach (biopsy of case 5 stained with 5D8/1) before treatment with oxymatrine. • FIG. 3 illustrates the stomach biopsy of case 5 stained with 5 D8/1 after taking oxymatrine for 6 months. • FIG. 4 graphically illustrates a cytokine gene expression study before and after oxymatrine (RQ is the gene expression ratio). • FIG. 5 graphically illustrates cytokine gene expression of interleukin-12P35+P40/interleukin-10 in tissue from CFS patients at the start of (pre-oxymatrine) and during oxymatrine therapy (n=17).
# enterovirus [3] = experiment: case report Example 5, treatment of chronic fatigue; type: in vivo, human
# Experimental: A person developed debilitating fatigue, sore throat, oral ulcers, vertigo, headaches and cognitive dysfunction two months after having a flu-like illness. […] Approximately four years later, the patient started taking oxymatrine. After an initial increase of gastrointestinal symptoms for the first two weeks, the patient tolerated 500 mg per day of oxymatrine.
# The symptoms continued for two weeks and resolved after stopping oxymatrine. […] They continued to improve for 12 months after taking the medication.
# [4] = system: Mycobacterium avium complex (MAC); experiment: case report Example 8, Mycobacterium avium complex infection; type: in vivo, human
# Experimental: A person with known history of Mycobacterium avium complex (MAC) infection of the lung and bronchiectasis for several years was treated with clarithromycin, ethambutol, ciprofloxacin and rifabutin for about five years. As a result of persistent positive sputum culture for MAC, the patient was also treated with gamma interferon (an immune booster) without significant benefit. Intravenous amikacin was added following right middle and left lingula lobectomy. In spite of the above therapy, sputum and repeat bronchial washing obtained by bronchoscopy grew MAC within three weeks. A computed tomography scan of the chest remained unchanged except for the post-surgical changes.
# Sputum became clear in color then resolved. About two months after the start of oxymatrine, the patient had fevers, flu-like symptoms, increase in non-productive cough, bilateral uveitis and elevation of liver enzymes to 3.5 times normal values. The symptoms lasted two weeks and resolved after tapering dose of oxymatrine to 200 mg bid. Liver enzymes returned to normal within six weeks. […] The anti-MAC medications were discontinued after […] of oxymatrine therapy. The dose of oxymatrine was tapered to 100 mg tid at four and a half months of therapy and then stopped after six months of total therapy. The patient felt well at the six month follow-up.
# enterovirus [5] = experiment: case report Example 10, acute enterovirus infection of the gastrointestinal tract; type: in vivo, human
# Text: A person developed subacute onset of severe fatigue, nausea, anorexia and progressive weight loss of 20 pounds following an upper respiratory infection.
# [6] = case report Example 11, treating diarrhea; type: in vivo, human; conditions: after starting 200 mg bid
# Text: A person developed continuing watery diarrhea, as many as twenty episodes a day, and mild fatigue for three months. Laboratory studies and stool work-up were completely negative. […] They failed Asacol therapy.
# coxsackievirus B = conditions: in vitro; mechanism not defined; cited from earlier work
# echoviruses = conditions: in vitro; mechanism not defined; cited from earlier work
# hepatitis B virus = conditions: cited from earlier work
# [7] = side effects in 176 patients having taken oxymatrine
# [8] = compared to placebo-treated animals
smiles,measurement,setting,value
O=C1CCC[C@@H]2[C@H]3CCC[N+]4([O-])CCC[C@@H](CN12)[C@@H]34 (some centres unmarked) [oxymatrine],changes of other chemistry parameters and complete blood counts (CBC),enterovirus [1]; compared to baseline values,no significant changes
same,patients who relapsed responded to restart of oxymatrine,enterovirus [1]; eighty-seven percent,13/15
same,patients responded to oxymatrine,"enterovirus [1]; first group (52/100), 200-300 mg twice a day, minimum three months, intent-to-treat, control groups 6% (7/114), p <0.000001",52%
same,"patients reporting transient, moderate increase in pre-existing symptoms","enterovirus [1]; human, in vivo",more than 50%
same,patients with elevated blood pressure that prompted discontinuation of therapy,"enterovirus [1]; human, in vivo",2/204
same,serious complications during therapy,"enterovirus [1]; human, in vivo",No serious complications
same,tolerability,"enterovirus [1]; most of the patients, except for variable increase of pre-existing symptoms during the first 1-2 days of maximal doses",tolerated oxymatrine well
same,patients responded to treatment,enterovirus [1]; next 104 patients,52%
same,patients responded to therapy,"enterovirus [1]; patients with elevated chrysanthemum virus B (CVB) and echovirus (Ech) antibody, fifty-three percent",57/107
same,patients responded,enterovirus [1]; patients with negative biopsies (5/9),56%
same,patients improved,enterovirus [1]; patients with non-typeable EV infections (49/97),50%
same,patients responded,"enterovirus [1]; patients with positive EV protein in stomach biopsies, fifty-two percent",47/91
same,patients with transient increase in potassium,enterovirus [1]; returned to normal without specific treatment,2/204
same,Diffuse rashes: % of total patients,enterovirus [1]; [7],< 1%
same,Dry eyes and mouth: % of total patients,enterovirus [1]; [7],1%
same,Fevers: % of total patients,enterovirus [1]; [7],2%
same,Herpes simplex virus outbreak after discontinuation: % of total patients,enterovirus [1]; [7],1%
same,Increase in blood pressure: % of total patients,enterovirus [1]; [7],1%
same,Increase in edema: % of total patients,enterovirus [1]; [7],1%
same,Increased abdominal pain: % of total patients,enterovirus [1]; [7],6%
same,Increased bladder symptoms: % of total patients,enterovirus [1]; [7],2%
same,Increased diarrhea: % of total patients,enterovirus [1]; [7],4%
same,Increased dizziness: % of total patients,enterovirus [1]; [7],2%
same,Increased fatigue: % of total patients,enterovirus [1]; [7],4%
same,Increased headache: % of total patients,enterovirus [1]; [7],8%
same,Increased insomnia: % of total patients,enterovirus [1]; [7],1%
same,Increased myalgia: % of total patients,enterovirus [1]; [7],30%
same,Increased nausea: % of total patients,enterovirus [1]; [7],6%
same,"Increased palpitation, chest pain: % of total patients",enterovirus [1]; [7],3%
same,Increased polyarthralgia: % of total patients,enterovirus [1]; [7],1%
same,Increased sinus congestion: % of total patients,enterovirus [1]; [7],3%
same,Inflammation of skin lesion: % of total patients,enterovirus [1]; [7],1%
same,New rashes: % of total patients,enterovirus [1]; [7],< 1%
same,Seizure (petit mal): % of total patients,enterovirus [1]; [7],< 1%
same,Weight gain: % of total patients,enterovirus [1]; [7],1%
same,patients who stopped oxymatrine due to intolerable side effects,"enterovirus [1]; within the first eight weeks, twenty patients",10%
same,patients relapsed after discontinuation of oxymatrine,"enterovirus [1]; within two days to one month after discontinuation, fifty-nine percent",19/32
same,increase of the interleukin-12P35+P40/interleukin-10 ratio (gene expression),"[2]; seven responders of n=17, pre-oxymatrine vs during therapy",greater than 2 fold
same,interleukin-12P35+P40/interleukin-10 ratio (gene expression),"[2]; ten non-responders of n=17, pre-oxymatrine vs during therapy",remained the same or decreased
same,clinical outcome,enterovirus [3]; three months after stopping oxymatrine,only had mild symptoms and was able to return to part-time work and regular exercise
same,adverse symptoms,"enterovirus [3]; two months after taking the medication, 500 mg per day, continued two weeks, resolved after stopping","severe diffuse ulcerations of the mouth mucosa, increasing headache, sinus congestion and severe myalgia"
same,elevation of liver enzymes,"[4]; about two months after start, returned to normal within six weeks after tapering to 200 mg bid",3.5 times normal values
same,repeat bronchial washing culture,"[4]; bronchoscopy six months after onset of oxymatrine therapy, with anti-MAC medications",no growth of MAC
same,repeat computed tomography scans of the chest,[4]; in vivo,healing and calcifications of the lesions
same,tolerability,[4]; in vivo,tolerated well
same,night sweats,[4]; within two months,decreased from twice a week to once every two weeks
same,symptoms,enterovirus [5]; 200 mg bid,promptly responded
same,activity,enterovirus [5]; after taking oxymatrine for ten days,resumed their normal activity
same,diarrhea,[6],resolved completely in a few days
same,growth inhibition of coxsackievirus B in cell cultures,coxsackievirus B,growth inhibition
same,growth inhibition of echoviruses in cell cultures,echoviruses,growth inhibition
same,level of gamma interferon,hepatitis B virus; [8],increased more than three-fold
same,level of interleukin-2,hepatitis B virus; [8],increased more than three-fold
same,level of interleukin-4,hepatitis B virus; [8],decreased more than three-fold
same,level of interleukin-10,hepatitis B virus; [8],decreased more than three-fold
same,"effect on the hepatitis B viremia, mRNA and protein levels","hepatitis B virus; mouse, in vivo",No effect
